# Organism: Rattus norvegicus
# Experiment: Open TG-GATES - Regimen: Daily Repeat
# Type: toxicity, organism-based, Sprague-Dawley
# Parameters: regimen Daily Repeat, gender Male, age 6 weeks
# Settings: in vivo, po, 0 mg/kg, route gavage, dose level Control; for Bas / Eos / Fbg / Ht / Lym / MCHC / MCV / Mono / PT / Plat / RBC / Ret / WBC / Neu: tissue Blood; for KIDNEY_L / KIDNEY_R / KIDNEY_TOTAL: tissue Kidney; for ALT / AST / CRE / Ca / DBIL / GLC / IP / K / LDH / Na / PL / RALB / TBIL / TC / TG / TP / gamma-GTP / BUN / Cl: tissue Plasma
smiles,measurement,setting,value
COc1ccc([C@@H]2Sc3ccccc3N(CCN(C)C)C(=O)[C@@H]2OC(C)=O)cc1 [DILTIAZEM],TERMINAL_BW,"72 h, time 3 day",215.4 g
same,Bas,"72 h, time 3 day",0.2%
same,Eos,"72 h, time 3 day",1%
same,Fbg,"72 h, time 3 day",262.2 mg/dL
same,Ht,"72 h, time 3 day",41.3%
same,Lym,"72 h, time 3 day",74.6%
same,MCHC,"72 h, time 3 day",32.7%
same,MCV,"72 h, time 3 day",67.4 fL
same,Mono,"72 h, time 3 day",3.4%
same,PT,"72 h, time 3 day",14.3 s
same,Plat,"72 h, time 3 day",126.4 x10_4/uL
same,RBC,"72 h, time 3 day",613.4 x10_4/ul
same,Ret,"72 h, time 3 day",8.9%
same,WBC,"72 h, time 3 day",101.8 x10_2/uL
same,KIDNEY_L,"72 h, time 3 day",1 g
same,KIDNEY_R,"72 h, time 3 day",1 g
same,KIDNEY_TOTAL,"72 h, time 3 day",1.9 g
same,ALT,"72 h, time 3 day",45.8 IU/L
same,AST,"72 h, time 3 day",76.8 IU/L
same,CRE,"72 h, time 3 day",0.2 mg/dL
same,Ca,"72 h, time 3 day",11.2 mg/dL
same,DBIL,"72 h, time 3 day",0.016 mg/dL
same,GLC,"72 h, time 3 day",177.4 mg/dL
same,IP,"72 h, time 3 day",7.6 mg/dL
same,K,"72 h, time 3 day",4 meq/L
same,LDH,"72 h, time 3 day",97 IU/L
same,Na,"72 h, time 3 day",143.8 meq/L
same,PL,"72 h, time 3 day",151.2 mg/dL
same,RALB,"72 h, time 3 day",2.7 g/dL
same,TBIL,"72 h, time 3 day",0.032 mg/dL
same,TC,"72 h, time 3 day",79.6 mg/dL
same,TG,"72 h, time 3 day",86 mg/dL
same,TP,"72 h, time 3 day",5.5 g/dL
same,gamma-GTP,"72 h, time 3 day",1.2 IU/L
same,TERMINAL_BW,"[…], time 7 day",250.6 g
same,TERMINAL_BW,"[…], time 14 day",321.8 g
same,TERMINAL_BW,"[…], time 28 day",411.3 g
same,Bas,"[…], time 7 day",0%
same,Eos,"[…], time 7 day",0.8%
same,Fbg,"[…], time 7 day",297.6 mg/dL
same,Ht,"[…], time 7 day",41.8%
same,Lym,"[…], time 7 day",77%
same,MCHC,"[…], time 7 day",33.1%
same,MCV,"[…], time 7 day",64.6 fL
same,Mono,"[…], time 7 day",2.8%
same,Neu,"[…], time 7 day",18.4%
same,PT,"[…], time 7 day",14.2 s
same,Plat,"[…], time 7 day",137.2 x10_4/uL
same,RBC,"[…], time 7 day",648 x10_4/ul
same,Ret,"[…], time 7 day",6.7%
same,WBC,"[…], time 7 day",91.7 x10_2/uL
same,Bas,"[…], time 14 day",0.4%
same,Eos,"[…], time 14 day",0.6%
same,Fbg,"[…], time 14 day",290.8 mg/dL
same,Ht,"[…], time 14 day",44%
same,Lym,"[…], time 14 day",82.2%
same,MCHC,"[…], time 14 day",33.2%
same,MCV,"[…], time 14 day",62.3 fL
same,Mono,"[…], time 14 day",2.2%
same,Neu,"[…], time 14 day",14%
same,PT,"[…], time 14 day",14.1 s
same,Plat,"[…], time 14 day",141.2 x10_4/uL
same,RBC,"[…], time 14 day",706.2 x10_4/ul
same,Ret,"[…], time 14 day",5.2%
same,Bas,"[…], time 28 day",0.4%
same,Eos,"[…], time 28 day",1%
same,Fbg,"[…], time 28 day",302.8 mg/dL
same,Ht,"[…], time 28 day",45.8%
same,Lym,"[…], time 28 day",77%
same,MCHC,"[…], time 28 day",34.1%
same,MCV,"[…], time 28 day",57.2 fL
same,Mono,"[…], time 28 day",2.4%
same,Neu,"[…], time 28 day",18.8%
same,PT,"[…], time 28 day",14 s
same,Plat,"[…], time 28 day",112.6 x10_4/uL
same,RBC,"[…], time 28 day",801.4 x10_4/ul
same,Ret,"[…], time 28 day",2.5%
same,WBC,"[…], time 28 day",99.4 x10_2/uL
same,KIDNEY_L,"[…], time 7 day",1.1 g
same,KIDNEY_R,"[…], time 7 day",1 g
same,KIDNEY_TOTAL,"[…], time 7 day",2.1 g
same,KIDNEY_L,"[…], time 14 day",1.3 g
same,KIDNEY_R,"[…], time 14 day",1.3 g
same,KIDNEY_TOTAL,"[…], time 14 day",2.6 g
same,KIDNEY_L,"[…], time 28 day",1.5 g
same,KIDNEY_R,"[…], time 28 day",1.5 g
same,KIDNEY_TOTAL,"[…], time 28 day",3 g
same,ALT,"[…], time 7 day",45.4 IU/L
same,AST,"[…], time 7 day",72.6 IU/L
same,BUN,"[…], time 7 day",14.8 mg/dL
same,CRE,"[…], time 7 day",0.2 mg/dL
same,Ca,"[…], time 7 day",11.1 mg/dL
same,Cl,"[…], time 7 day",106.4 meq/L
same,DBIL,"[…], time 7 day",0.014 mg/dL
same,GLC,"[…], time 7 day",187.8 mg/dL
same,IP,"[…], time 7 day",7.6 mg/dL
same,K,"[…], time 7 day",4.3 meq/L
same,LDH,"[…], time 7 day",84 IU/L
same,Na,"[…], time 7 day",143.8 meq/L
same,PL,"[…], time 7 day",162.4 mg/dL
same,RALB,"[…], time 7 day",2.8 g/dL
same,TBIL,"[…], time 7 day",0.018 mg/dL
same,TC,"[…], time 7 day",82.8 mg/dL
same,TG,"[…], time 7 day",112.6 mg/dL
same,TP,"[…], time 7 day",5.8 g/dL
same,gamma-GTP,"[…], time 7 day",1 IU/L
same,ALT,"[…], time 14 day",39 IU/L
same,AST,"[…], time 14 day",65.6 IU/L
same,BUN,"[…], time 14 day",16 mg/dL
same,CRE,"[…], time 14 day",0.2 mg/dL
same,Ca,"[…], time 14 day",10.8 mg/dL
same,Cl,"[…], time 14 day",105.6 meq/L
same,DBIL,"[…], time 14 day",0.018 mg/dL
same,GLC,"[…], time 14 day",189 mg/dL
same,IP,"[…], time 14 day",6.9 mg/dL
same,K,"[…], time 14 day",4.1 meq/L
same,LDH,"[…], time 14 day",92.8 IU/L
same,Na,"[…], time 14 day",144 meq/L
same,PL,"[…], time 14 day",160.4 mg/dL
same,RALB,"[…], time 14 day",2.8 g/dL
same,TBIL,"[…], time 14 day",0.02 mg/dL
same,TC,"[…], time 14 day",71.2 mg/dL
same,TG,"[…], time 14 day",180.4 mg/dL
same,TP,"[…], time 14 day",5.8 g/dL
same,gamma-GTP,"[…], time 14 day",1 IU/L
same,ALT,"[…], time 28 day",37.2 IU/L
same,AST,"[…], time 28 day",66 IU/L
same,BUN,"[…], time 28 day",16.8 mg/dL
same,CRE,"[…], time 28 day",0.3 mg/dL
same,Ca,"[…], time 28 day",11.1 mg/dL
same,Cl,"[…], time 28 day",108 meq/L
same,DBIL,"[…], time 28 day",0.014 mg/dL
same,GLC,"[…], time 28 day",198.8 mg/dL
same,IP,"[…], time 28 day",6.8 mg/dL
same,K,"[…], time 28 day",3.7 meq/L
same,LDH,"[…], time 28 day",63.4 IU/L
same,Na,"[…], time 28 day",146.4 meq/L
same,PL,"[…], time 28 day",160.2 mg/dL
same,RALB,"[…], time 28 day",2.9 g/dL
same,TBIL,"[…], time 28 day",0.028 mg/dL
same,TC,"[…], time 28 day",79.4 mg/dL
same,TG,"[…], time 28 day",125.2 mg/dL
same,TP,"[…], time 28 day",6.2 g/dL
